The results in this text go back to PMC5505244, “Crystal structure of a family 6 cellobiohydrolase from the basidiomycete Phanerochaete chrysosporium” (Acta Crystallographica. Section F, Structural Biology …, 2017).

The target of assay [1] is T1, PcCel6A (Phanerodontia chrysosporium, UniProt Q02321).
T1 construct: gene cbhII; catalytic domain only; N-terminal CBM and linker (residues 1-81) deleted; pPICZalpha vector, secreted from Pichia pastoris; about 37 kDa; nonglycosylated in crystal; model residues 82-439; one molecule in asymmetric unit
T1 sequence (Q02321 entry or part of it): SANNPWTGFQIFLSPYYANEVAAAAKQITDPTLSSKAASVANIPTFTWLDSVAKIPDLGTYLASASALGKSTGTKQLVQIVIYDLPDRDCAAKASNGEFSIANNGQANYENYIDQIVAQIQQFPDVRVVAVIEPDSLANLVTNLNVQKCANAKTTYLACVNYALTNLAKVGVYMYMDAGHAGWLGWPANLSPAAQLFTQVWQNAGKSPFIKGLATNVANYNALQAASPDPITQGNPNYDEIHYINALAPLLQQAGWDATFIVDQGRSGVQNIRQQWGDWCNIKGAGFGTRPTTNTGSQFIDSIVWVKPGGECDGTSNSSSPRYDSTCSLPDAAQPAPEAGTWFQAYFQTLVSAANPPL
The assay is described as follows: X-ray crystal structure, […] Å. It counts as binding. The following applies: crystal soaked with pNPG3 for 10 h, pH 5.0; active site, subsites +1 and +2; loops closed; putative Tris at subsite -1.

Assay [2] deals with T1, PcCel6A. The assay is described as follows: hydrolysis in crystal soak, inferred from bound product in X-ray structure. The following applies: pH 5.0, 10 h soak; intact compound not seen in the structure. Type of assay: biochemical.

`OC[C@H]1O[C@@H](O[C@H]2[C@H](O)[C@@H](O)[C@@H](O)O[C@@H]2CO)[C@H](O)[C@@H](O)[C@@H]1O` [α-cellobiose]: the “X-ray crystal structure, 2.1 Å” value in assay [1] was “The ligand-bound structure obtained from the pNPG3-soaked crystal contained one α-cellobiose molecule”.

Turning to `O=[N+]([O-])c1ccc(O[C@@H]2O[C@H](CO)[C@@H](O[C@@H]3O[C@H](CO)[C@@H](O[C@@H]4O[C@H](CO)[C@@H](O)[C@H](O)[C@H]4O)[C@H](O)[C@H]3O)[C@H](O)[C@H]2O)cc1` [p-nitrophenyl β-D-cellotrioside], the “hydrolysis in crystal soak, inferred from bound product in X-ray structure” value in assay [2] is listed as “The observed α-cellobiose is considered to be a product of the hydrolysis of pNPG3”.
